# Results: US12139492B2 (Endotarget Inc., priority 2021, dated 2024)
# pIC50: −log10 of the molar value.
# How the values were obtained:
# Type in all cases: cell-based
# Mino cells = test: Antiproliferative effect, MTS cell viability assay, Mino cells; conditions: Homo sapiens, MINO, Mino mantle cell lymphoma cells; read-out: IC50 (anti-proliferation) Mino cells
# Outline: (§1)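 Readout was MTS-derived formazan absorbance (490 nm) reflecting metabolically active cells. Treatment lasted 72 h over a 0–10 μM range (0.001, 0.01, 0.1, 1, 10 μM) in JeKo-1 and Mino B-cell malignancy cells.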
# JeKo-1 cells = test: Antiproliferative effect, MTS cell viability assay, JeKo-1 cells; conditions: Homo sapiens; JeKo-1 mantle cell lymphoma cells; read-out: IC50 (anti-proliferation) JeKO-1 cells
# Outline: as §1
# BTK = BTK (Homo sapiens, UniProt Q06187); test: BTK degradation, DC50 and Dmax of Table 1 (cell line not given); design: endogenous in cells; conditions: for DC50: concentration giving 50% reduction of BTK expression level
# Chain of BTK (Q06187 whole entry): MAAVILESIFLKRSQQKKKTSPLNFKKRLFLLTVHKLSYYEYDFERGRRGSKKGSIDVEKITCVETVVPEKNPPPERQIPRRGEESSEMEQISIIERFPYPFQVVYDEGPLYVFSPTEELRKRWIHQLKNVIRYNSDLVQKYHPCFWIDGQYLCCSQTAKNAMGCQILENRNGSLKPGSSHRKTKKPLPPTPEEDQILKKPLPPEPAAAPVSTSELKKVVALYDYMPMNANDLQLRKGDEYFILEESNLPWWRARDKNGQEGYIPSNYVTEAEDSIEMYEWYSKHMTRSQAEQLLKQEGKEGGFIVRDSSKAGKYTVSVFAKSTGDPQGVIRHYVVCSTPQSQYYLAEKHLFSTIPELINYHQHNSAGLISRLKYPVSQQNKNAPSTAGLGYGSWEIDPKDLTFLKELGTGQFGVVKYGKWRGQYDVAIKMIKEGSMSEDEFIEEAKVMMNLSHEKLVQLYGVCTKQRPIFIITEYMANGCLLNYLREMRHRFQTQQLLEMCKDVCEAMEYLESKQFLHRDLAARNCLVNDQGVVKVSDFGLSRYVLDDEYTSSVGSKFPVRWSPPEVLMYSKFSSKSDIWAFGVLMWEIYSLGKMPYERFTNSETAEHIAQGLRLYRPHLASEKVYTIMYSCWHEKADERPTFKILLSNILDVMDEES
Dmax (BTK) [%],DC50 (BTK) [nM],Structure (SMILES),pIC50 (Mino cells),pIC50 (JeKo-1 cells)
> 90,10 to 50,"Nc1ncnc2c1c(-c1ccc(Oc3ccccc3)cc1)nn2C1CCN(CC2CCN(C(=O)N3CCC(N4CCN(c5ccc6c(c5)CN(C5CCC(=O)NC5=O)C6=O)CC4)CC3)CC2)CC1 (stereo not shown) [Compound 38, 3-(5-(4-(1-(4-((4-(4-amino-3-(4-phenoxyphenyl)-1H-pyrazolo[3,4-d]pyrimidin-1-yl)piperidin-1-yl)methyl)piperidine-1-carbonyl)piperidin-4-yl)piperazin-1-yl)-1-oxoisoindolin-2-yl)piperidine-2,6-dione]",> 6.00,> 6.00
> 50,> 50,"Nc1ncnc2c1c(-c1ccc(Oc3ccccc3)cc1)nn2C1CCN(C(=O)N2CCC(c3ccc4c(c3)CN(C3CCC(=O)NC3=O)C4=O)CC2)CC1 (stereo not shown) [Compound 78, 3-(5-(1-(4-(4-amino-3-(4-phenoxyphenyl)-1H-pyrazolo[3,4-d]pyrimidin-1-yl)piperidine-1-carbonyl)piperidin-4-yl)-1-oxoisoindolin-2-yl)piperidine-2,6-dione]",< 5.00,< 5.00
> 75,> 50,"Nc1ncnc2c1c(-c1ccc(Oc3ccccc3)cc1)nn2C1CCN(C(=O)N2CCN(CCCC3CCN(c4ccc5c(c4)CN(C4CCC(=O)NC4=O)C5=O)CC3)CC2)CC1 (stereo not shown) [Compound 122, 3-(5-(4-(3-(4-(4-(4-amino-3-(4-phenoxyphenyl)-1H-pyrazolo[3,4-d]pyrimidin-1-yl)piperidine-1-carbonyl)piperazin-1-yl)propyl)piperidin-1-yl)-1-oxoisoindolin-2-yl)piperidine-2,6-dione]",5.00 to 6.00,5.00 to 6.00
> 90,10 to 50,"Nc1ncnc2c1c(-c1ccc(Oc3ccccc3)cc1)nn2[C@@H]1CCCN(C(=O)N2CCC(CCN3CCC(c4ccc5c(c4)CN(C4CCC(=O)NC4=O)C5=O)CC3)CC2)C1 (stereo partly drawn) [Compound 74, 3-(5-(1-(2-(1-((R)-3-(4-amino-3-(4-phenoxyphenyl)-1H-pyrazolo[3,4-d]pyrimidin-1-yl)piperidine-1-carbonyl)piperidin-4-yl)ethyl)piperidin-4-yl)-1-oxoisoindolin-2-yl)piperidine-2,6-dione]",< 5.00,< 5.00
> 75,> 50,"Nc1ncnc2c1c(-c1ccc(Oc3ccccc3)cc1)nn2C1CCN(C(=O)N2CCN(CCCN3CCN(c4ccc5c(c4)C(=O)N(C4CCC(=O)NC4=O)C5=O)CC3)CC2)CC1 (stereo not shown) [Compound 119, 5-(4-(3-(4-(4-(4-amino-3-(4-phenoxyphenyl)-1H-pyrazolo[3,4-d]pyrimidin-1-yl)piperidine-1-carbonyl)piperazin-1-yl)propyl)piperazin-1-yl)-2-(2,6-dioxopiperidin-3-yl)isoindoline-1,3-dione]",5.00 to 6.00,< 5.00
> 90,< 10,"Nc1ncnc2c1c(-c1ccc(Oc3ccccc3)cc1)nn2[C@@H]1CCCN(C(=O)N2CCN(CCN3CCN(c4ccc5c(c4)CN(C4CCC(=O)NC4=O)C5=O)CC3)CC2)C1 (stereo partly drawn) [Compound 66, 3-(5-(4-(2-(4-((R)-3-(4-amino-3-(4-phenoxyphenyl)-1H-pyrazolo[3,4-d]pyrimidin-1-yl)piperidine-1-carbonyl)piperazin-1-yl)ethyl)piperazin-1-yl)-1-oxoisoindolin-2-yl)piperidine-2,6-dione]",5.00 to 6.00,> 6.00
> 90,> 50,"Nc1ncnc2c1c(-c1ccc(Oc3ccccc3)cc1)nn2C1CCN(C(=O)N2CCC(CCCC3CCN(c4ccc5c(c4)CN(C4CCC(=O)NC4=O)C5=O)CC3)CC2)CC1 (stereo not shown) [Compound 126, 3-(5-(4-(3-(1-(4-(4-amino-3-(4-phenoxyphenyl)-1H-pyrazolo[3,4-d]pyrimidin-1-yl)piperidine-1-carbonyl)piperidin-4-yl)propyl)piperidin-1-yl)-1-oxoisoindolin-2-yl)piperidine-2,6-dione]",5.00 to 6.00,< 5.00
